Results reported in US12297188B2, “Crystalline forms of (S)-1-(1-acryloylpyrrolidin-3-yl)-3-((3,5-dimethoxyphenyl)ethynyl)-5-(methylamino)-1H-pyrazole-4-carboxamide” (Beijing InnoCare Pharma Tech Co., Ltd., priority 2019, dated 2025).
In brackets after ≈: the same amount, converted by molar mass. Entries after “also recorded” stand apart in the source; their conditions may differ.

Tests used:
[1] = tested on: fibroblast growth factor receptor (FGFR); conditions: cited from earlier work
[2] = Equilibrium solubility in water; type: physicochemical; conditions: for solubility classification: water, room temperature, 24 hours
[3] = Thermogravimetric analysis (thermal stability); type: physicochemical
Protocol: TGA is a method of thermal analysis in which the mass of a sample is measured over time as the temperature changes. TGA evaluates the thermal stability of a material.
(§1) X-ray powder diffraction (XRPD) studies in the present disclosure were performed using a Bruker D8 ADVANCE X-ray powder diffractometer. The parameters of the XRPD method of Compound I were as follows: • X-ray reflection: Cu, Kα • Kα1 (Å): 1.540598; Kα2 (Å): 1.544426 • Kα2/Kα1 intensity ratio: 0.50 • Voltage: 40 kV • Current: 40 mA • Scanning range: from 3.0 to 40.0 degree • Differential scanning calorimetry (DSC) data in the present disclosure were acquired by a TA DSC250. The parameters of the DSC method of Compound I were as follows: • Heating rate: 10° C./min • Purging gas: nitrogen • Thermogravimetric analysis (TGA) data in the present disclosure were acquired by a TA TGA550. The parameters of the TGA method of Compound I were as follows: • Heating rate: 10° C./min • Purging gas: nitrogen • Dynamic vapor sorption (DVS) data in the present disclosure were acquired by a SMS Intrinsic DVS. The parameters of the DVS method of Compound I were as follows: • Temperature: 25° C. • Gas and flow rate: nitrogen, 200 mL/min • dm/dt: 0.002%/min • Relative humidity (RH) range: 0% RH-95% RH

[4] = Stability assessment on storage (XRPD and HPLC purity); type: physicochemical; conditions: for XRPD change after storage / purity change after storage / stability after storage: 25° C./60% RH and 40° C./75% RH (opened) one week
Protocol: About 10 mg Form A of Compound I was added to each 1.5-mL glass vial and stored at (i) 80° C. (closed) for one day, or (ii) 25° C./60% RH and 40° C./75% RH (opened) for one week, and then analyzed for XRPD and HPLC purity.
About 10 mg Form C of Compound I was added to each 1.5-mL glass vial and stored under 25° C./60% RH (FIG. 13) and 40° C./75% RH (opened, FIG. 14) for one week, and then analyzed for XRPD and HPLC purity.

[5] = Interconversion of Forms A-C (heating and slurry competition); type: physicochemical; conditions: for form obtained from slurry competition: equal amounts of Form A and B, isopropyl alcohol/water, aw=0~1, room temperature
Text: The relationships among Forms A-C were investigated via heating and slurry competition experiments.

[6] = Hygroscopicity assessment by DVS; type: physicochemical; conditions: for hygroscopicity / water uptake: DVS; for XRPD before and after DVS testing: DVS 0% RH-95% RH; for water uptake: 80% RH, 25° C.
Protocol: as §1
About 30 mg Form A of Compound I was assessed for hygroscopicity using a DVS analyzer, and tested by XRPD before and after DVS analysis. DVS is a gravimetric technique that measures how quickly and how much of a solvent is absorbed by a sample.
About 30 mg Form C of Compound I was assessed for hygroscopicity using a DVS analyzer, and tested by XRPD before and after DVS analysis.

[7] = 25° C./60% RH for 1 week (opened)
[8] = 40° C./75% RH for 1 week (opened)

form obtained from slurry competition [5] | solubility classification [2] | XRPD before and after DVS testing [6] | water uptake [6] [%] | weight loss (TGA) ([3]; heated to 180° C.) | Purity (%) [4, 7] [%] | Purity (%) [4, 8] [%] | Purity (%) ([4]; Day 0) | SMILES | hygroscopicity [6] | also measured
– | – | – | – | – | – | – | – | C=CC(=O)N1CC[C@H](n2nc(C#Cc3cc(OC)cc(OC)c3)c(C(N)=O)c2NC)C1 [Compound I, (S)-1-(1-acryloylpyrrolidin-3-yl)-3-((3,5-dimethoxyphenyl)ethynyl)-5-(methylamino)-1H-pyrazole-4-carboxamide] | – | FGFR inhibition [1]: potent inhibitor
gave Form A | – | – | – | – | – | – | – | C=CC(=O)N1CC[C@H](n2nc(C#Cc3cc(OC)cc(OC)c3)c(C(N)=O)c2NC)C1 [Form B, (S)-1-(1-acryloylpyrrolidin-3-yl)-3-((3,5-dimethoxyphenyl)ethynyl)-5-(methylamino)-1H-pyrazole-4-carboxamide] | – | solubility thermodynamic ([2]; thermodynamic from solid, conditions not stated): 15.1 µg/mL (≈ 35.8 µM); weight loss by TGA ([3]; temperature not stated): about 2.42%; chemical stability [4]: chemically stable; physical stability ([4]; can be converted to Form A or Form C): not physically stable
gave Form A | almost insoluble or insoluble | did not change | 0.14 | about 0.02% | 99.78 | 99.76 | 99.75 | C=CC(=O)N1CC[C@H](n2nc(C#Cc3cc(OC)cc(OC)c3)c(C(N)=O)c2NC)C1 [Form A, (S)-1-(1-acryloylpyrrolidin-3-yl)-3-((3,5-dimethoxyphenyl)ethynyl)-5-(methylamino)-1H-pyrazole-4-carboxamide] | not hygroscopic | thermal stability ([3]; TGA, heated to 180° C.): thermally stable; XRPD change after storage ([4]; 80° C. (closed) one day): little or no change; purity change after storage ([4]; 80° C. (closed) one day): no purity change; stability after storage ([4]; 80° C. (closed) one day): stable; Purity (%) ([4]; 80° C. for 1 day (closed)): 99.77%; thermodynamic stability ([5]; room temperature, versus Form B and C): better thermodynamic stability
– | almost insoluble or insoluble | did not change | 5.44 | about 2.40% | 96.91 | 96.99 | 96.83 | C=CC(=O)N1CC[C@H](n2nc(C#Cc3cc(OC)cc(OC)c3)c(C(N)=O)c2NC)C1 [Form C, (S)-1-(1-acryloylpyrrolidin-3-yl)-3-((3,5-dimethoxyphenyl)ethynyl)-5-(methylamino)-1H-pyrazole-4-carboxamide] | moderately hygroscopic; also recorded: moderately hydgroscopic | solubility ([2]; after equilibrium in water at room temperature for 24 hours): 15.93 µg/mL (≈ 37.6 µM); XRPD change after storage [4]: little or no change; purity change after storage [4]: no significant purity change; stability after storage [4]: stable; form conversion on heating ([5]; heating to 145° C. and subsequently cooling to room temperature): converted to Form A
